Here are results for 15 compounds from patent US20230398130A1, “METHODS AND COMPOSITIONS FOR DIFFERENTIATING STEM CELLS” (Massachusetts Institute of Technology, priority 2020, published 2023).

Each structure is given as a SMILES string.

The subject of this assay is ISC-enriched organoids. Kind of assay: Primary screen, 384-well 2.5-D organoid differentiation (ENR+CD, 6 days, Target Selective Inhibitor Library, vs whole-plate median): ATP (CellTiter-Glo 3D, CTG). As to conditions: primary screen, standard z score of FC.

`Cc1ccccc1C(C(=O)NC1CCCCC1)N(C(=O)Cn1ccnc1C)c1cccc(F)c1` (stereo not drawn) [AGI-5198]: the Z.CTG is recorded as 0.738 (dose 0.08 uM), 0.368 (dose 0.40 uM), 0.671 (dose 2.00 uM) and 0.802 (dose 10.00 uM).

On to `CC(=O)Nc1nc2c(Oc3cc(-c4ccc(C(F)(F)F)cc4)ncn3)cccc2s1` [AMG-517], for which the Z.CTG runs as follows: (dose 0.08 uM) 0.385; (dose 0.40 uM) 0.269; (dose 2.00 uM) 0.268; (dose 10.00 uM) 0.135.

Consider `COc1cc(N2CCC(N3CCN(C)CC3)CC2)ccc1Nc1ncc(Cl)c(Nc2ccccc2P(C)(C)=O)n1` [AP26113], for which the Z.CTG (dose 0.08 uM) is −0.130, the Z.CTG (dose 0.40 uM) amounted to 0.145, the Z.CTG (dose 2.00 uM) is recorded as −1.333 and the Z.CTG (dose 10.00 uM) is listed as −4.012.

Take `NC(=O)c1ncn([C@@H]2O[C@H](CO)[C@@H](O)[C@H]2O)c1N` [Acadesine]: the Z.CTG by setting is: (dose 0.08 uM) 0.225; (dose 0.40 uM) 0.413; (dose 2.00 uM) −0.012; (dose 10.00 uM) 0.182.

With `COc1ccc2cccc(CCNC(C)=O)c2c1` [Agomelatine], the Z.CTG is listed as 0.252 (dose 0.08 uM), 0.193 (dose 0.40 uM), −0.472 (dose 2.00 uM) and 0.056 (dose 10.00 uM).

On to `Oc1ncnc2[nH]ncc12` [Allopurinol], for which the Z.CTG (dose 0.08 uM) is reported as 0.506, the Z.CTG (dose 0.40 uM) is listed as −0.234, the Z.CTG (dose 2.00 uM) was −0.387 and the Z.CTG (dose 10.00 uM) is −1.085.

With `CCOC(=O)[C@H]1O[C@@H]1C(=O)N[C@@H](CC(C)C)C(=O)NCCC(C)C` [Aloxistatin], the Z.CTG is −0.015 (dose 0.08 uM), −0.014 (dose 0.40 uM), −0.308 (dose 2.00 uM) and −0.511 (dose 10.00 uM).

Consider `CCOC(=O)C1=C(COCCN)NC(C)=C(C(=O)OC)C1c1ccccc1Cl` (stereo not drawn) [Amlodipine], for which the Z.CTG is, setting by setting: (dose 0.08 uM) −0.837; (dose 0.40 uM) −0.866; (dose 2.00 uM) −0.888; (dose 10.00 uM) −1.006.

Consider `COc1ccc(C(=O)N2CCCC2=O)cc1` [Aniracetam], for which the Z.CTG is given as −0.211 (dose 0.08 uM), 0.267 (dose 0.40 uM), 0.130 (dose 2.00 uM) and 0.045 (dose 10.00 uM).

Turning to `N#CC1(c2ccc(NC(=O)c3cccnc3NCc3ccncc3)cc2)CCCC1` [Apatinib], the Z.CTG came to 0.532 (dose 0.08 uM), 0.722 (dose 0.40 uM), 0.645 (dose 2.00 uM) and 0.520 (dose 10.00 uM).

As to `O=c1cc(-c2ccc(O)cc2)oc2cc(O)cc(O)c12` [Apigenin], the Z.CTG reads like this: (dose 0.08 uM) 0.588; (dose 0.40 uM) 0.510; (dose 2.00 uM) 0.753; (dose 10.00 uM) 0.063.

Consider `COc1ccc(-n2nc(C(N)=O)c3c2C(=O)N(c2ccc(N4CCCCC4=O)cc2)CC3)cc1` [Apixaban], for which the Z.CTG was −0.212 (dose 0.08 uM), 0.266 (dose 0.40 uM), −0.144 (dose 2.00 uM) and −0.185 (dose 10.00 uM).

For `C[C@@H](O[C@H]1OCCN(Cc2n[nH]c(=O)[nH]2)[C@H]1c1ccc(F)cc1)c1cc(C(F)(F)F)cc(C(F)(F)F)c1` [Aprepitant], the Z.CTG reads like this: (dose 0.08 uM) 0.747; (dose 0.40 uM) 0.962; (dose 2.00 uM) 0.346; (dose 10.00 uM) 0.121.

Turning to `CC[C@@H]1C(=O)N(C)c2cnc(Nc3ccc(C(=O)NC4CCN(C)CC4)cc3OC)nc2N1C1CCCC1` [BI 2536], the Z.CTG is 0.069 (dose 0.08 uM), −1.275 (dose 0.40 uM), −1.220 (dose 2.00 uM) and −2.455 (dose 10.00 uM).

As for `Cn1c(N2CCCCS2(=O)=O)nc(C(=O)NCc2ccc(F)cc2)c(O)c1=O` [BMS-707035], the Z.CTG by setting is: (dose 0.08 uM) 0.759; (dose 0.40 uM) 0.568; (dose 2.00 uM) 0.667; (dose 10.00 uM) 0.330.
